From PMC4926143 (Toxins, 2016)
≈ marks a conversion by molar mass, not a printed value. Entries after “also recorded” stand apart in the source; their conditions may differ. Where two headings read alike, the source gives them in different places.

Columns and labels:
[1] = target: T1, bovine heart mitochondrial complex II (Bos taurus, UniProt P31039+P35720+Q3T189+Q95123); assay: MitoCheck Complex II Activity Assay (succinate dehydrogenase activity); assay type: biochemical; conditions: bovine heart mitochondria
T1 construct: bovine heart mitochondrial complex II; purchased Cayman Chemical; host or cells: bovine heart mitochondria (native tissue preparation supplied in the kit)

[2] = test system: Aspergillus flavus IMF 47798; assay type: cell-based
aflatoxin production = conditions: cited from earlier work
[3] = test system: Aspergillus flavus IMF 47798; assay type: cell-based; remark: listed apart in the source
aflR and pksA mRNA = assay: RT-qPCR of aflR and pksA mRNA levels in A. flavus; assay type: cell-based, Aspergillus flavus; conditions: 0.05 mM, normalized to β-tubulin mRNA
Description: To test the effects of three octyl esters on the mRNA levels of aflR and pksA, A. flavus was cultured with octyl syringate (8), octyl paraben (12), or octyl gallate (14) at the concentrations of 0.05 mM. Subsequently, aflR and pksA mRNA levels were examined by quantitative PCR.
The lyophilized mycelia were ground under liquid nitrogen using a mortar and pestle. Total RNA was extracted with TRIzol reagent (Thermo Fisher Scientific, Waltham, MA, USA) and purified with the PureLink RNA Mini Kit (Thermo Fisher Scientific), according to manufacturer’s protocol. The cDNA was prepared with the ReverTra Ace qPCR RT Master Mix (TOYOBO, Osaka, Japan), according to manufacturer’s protocol. The cDNA derived from 0.05 μg of total RNA was used as a qPCR template. qPCR was carried out using FastStart Universal SYBR Green Master (Rox) (Roche, Basel, Switzerland) in a final volume of 25 μL for each reaction and an ABI 7300 Real-Time PCR System (Thermo Fisher Scientific). Two-step PCR conditions were as follows: after an initial incubation at 95 °C for 10 min, 40 cycles of 95 °C for 15 s and 60 °C for 1 min were performed. The amount of aflR and pksA mRNA were normalized to the amount of β-tubulin mRNA (control gene) in each sample. PCR primers used for each gene were as follows: β-tubulin 5′-[…]-3′ and 5′-[…]-3′; AflR 5′-[…]-3′ and 5′-[…]-3′; pksA 5′-[…]-3′ and 5′-[…]-3′.

A. flavus = conditions: cited from earlier work
A. flavus ATCC 9170 = test system: A. flavus ATCC 9170; set-up: method as in PMID 19232493; conditions: cited from earlier work
[4] = read-out: IC50, mitochondrial complex II

T1 sequence (P31039 44-665): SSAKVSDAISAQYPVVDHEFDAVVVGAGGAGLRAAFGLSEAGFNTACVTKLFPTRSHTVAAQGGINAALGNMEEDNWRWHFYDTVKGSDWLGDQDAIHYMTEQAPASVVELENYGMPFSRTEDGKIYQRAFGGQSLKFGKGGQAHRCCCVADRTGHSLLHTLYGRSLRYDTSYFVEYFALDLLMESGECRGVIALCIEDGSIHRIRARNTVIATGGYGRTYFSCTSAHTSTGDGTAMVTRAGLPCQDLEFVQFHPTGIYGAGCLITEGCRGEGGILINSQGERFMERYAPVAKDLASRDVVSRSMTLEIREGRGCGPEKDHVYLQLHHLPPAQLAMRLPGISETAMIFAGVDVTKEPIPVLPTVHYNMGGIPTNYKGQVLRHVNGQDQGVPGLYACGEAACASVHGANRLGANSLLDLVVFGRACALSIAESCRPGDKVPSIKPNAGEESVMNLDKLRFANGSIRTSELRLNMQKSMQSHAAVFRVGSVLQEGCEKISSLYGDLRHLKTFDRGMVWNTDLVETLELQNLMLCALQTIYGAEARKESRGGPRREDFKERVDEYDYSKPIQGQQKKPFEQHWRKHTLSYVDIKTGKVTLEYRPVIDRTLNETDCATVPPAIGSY
T1 sequence (Q3T189 29-280): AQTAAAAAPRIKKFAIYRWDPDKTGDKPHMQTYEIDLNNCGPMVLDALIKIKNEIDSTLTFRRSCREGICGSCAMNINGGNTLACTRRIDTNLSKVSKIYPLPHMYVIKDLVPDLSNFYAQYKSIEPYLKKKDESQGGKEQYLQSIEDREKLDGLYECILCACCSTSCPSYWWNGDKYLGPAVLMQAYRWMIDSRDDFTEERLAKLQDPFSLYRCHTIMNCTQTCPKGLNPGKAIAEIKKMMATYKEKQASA
T1 sequence (P35720 30-169): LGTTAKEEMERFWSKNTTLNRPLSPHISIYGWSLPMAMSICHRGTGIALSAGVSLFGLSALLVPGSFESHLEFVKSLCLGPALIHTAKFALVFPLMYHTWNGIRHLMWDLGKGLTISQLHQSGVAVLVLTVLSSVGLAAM
T1 sequence (Q95123 56-158): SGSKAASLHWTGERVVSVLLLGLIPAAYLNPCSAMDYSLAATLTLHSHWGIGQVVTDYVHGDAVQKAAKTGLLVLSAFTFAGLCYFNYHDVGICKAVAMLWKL

Compound: CCCCOC(=O)c1cc(OC)c(O)c(OC)c1 [compound 4, butyl syringate]
- IC50 [1, 4]: 9700 µM
- inhibition of aflatoxin production [2]: strong inhibitory activity

Compound: O=C(Nc1ccccc1-c1ccc(Cl)cc1)c1cccnc1Cl [boscalid]
- IC50 [1, 4]: 19 µM
- inhibition of aflatoxin production by complex II inhibitors (aflatoxin production): inhibited aflatoxin production with selectivity
- IC50 (aflatoxin production; read-out: IC50 of aflatoxin production inhibition): < 0.01 µM

Compound: CCCCCCOC(=O)c1cc(OC)c(O)c(OC)c1 [compound 6, hexyl syringate]
- IC50 [1, 4]: 1100 µM
- inhibition of aflatoxin production [2]: inhibited aflatoxin production very strongly

Compound: CCCCCCCCOC(=O)c1ccc(O)cc1 [compound 12, octyl paraben]
- IC50 [1, 4]: 160 µM
- aflatoxin production inhibitory activity (comparison in words) [2]: strong
- effect on fungal growth [3]: did not affect fungal growth
- aflR mRNA level (aflR and pksA mRNA): None of the three octyl esters affected
- pksA mRNA level (aflR and pksA mRNA): None of the three octyl esters affected

Compound: CCCCCCCOC(=O)c1cc(OC)c(O)c(OC)c1 [compound 7, heptyl syringate]
- IC50 [1, 4]: 1300 µM
- inhibition of aflatoxin production [2]: inhibited aflatoxin production very strongly

Compound: CCCCCCCOC(=O)c1ccc(O)cc1 [compound 11, heptyl paraben]
- aflatoxin production inhibitory activity after five and six days of cultivation [2]: maintained
- inhibition of aflatoxin production [2]: strong
- effect on fungal growth [3]: did not affect fungal growth

Compound: Cc1cc(O)c2c(c1)O[C@@]1(C)CC[C@H]3C(C)(C)CCC[C@]34CO[C@@H]2[C@H]41 [siccanin]
- inhibition of aflatoxin production by complex II inhibitors (aflatoxin production): inhibited aflatoxin production with selectivity

Compound: CCCOC(=O)c1ccc(O)cc1 [compound 10, Propyl paraben]
- IC50 [1, 4]: > 20000 µM
- inhibition of aflatoxin production on a solid culture (A. flavus): inhibit aflatoxin production
- aflatoxin production inhibitory activity (comparison in words) [2]: more strongly than propyl syringate (3) and propyl gallate (15); also recorded: much weaker than that of heptyl paraben (11) and octyl paraben (12)

Compound: CCCCCCCCOC(=O)c1cc(OC)c(O)c(OC)c1 [compound 8, Octyl syringate]
- IC50 [1, 4]: 340 µM
- inhibition of aflatoxin production [2]: inhibited aflatoxin production very strongly
- fungal mycelial weight after five and six days of cultivation [3]: without changing
- aflR mRNA level (aflR and pksA mRNA): None of the three octyl esters affected
- pksA mRNA level (aflR and pksA mRNA): None of the three octyl esters affected

Compound: CCCCCCCCOC(=O)c1cc(O)c(O)c(O)c1 [compound 14, Octyl gallate]
- minimum inhibitory concentration (MIC) (A. flavus ATCC 9170): 63 µM (≈ 17.8 µg/mL)
- IC50 [1, 4]: 290 µM
- aflatoxin production inhibitory activity after five and six days of cultivation [2]: maintained
- inhibition of aflatoxin production [2]: as strongly as octyl syringate (8) and octyl paraben (12); also recorded: strongly inhibited
- effect on fungal growth [3]: did not affect fungal growth
- effect on mycelial weight [3]: reduced the mycelial weight
- aflR mRNA level (aflR and pksA mRNA): None of the three octyl esters affected
- pksA mRNA level (aflR and pksA mRNA): None of the three octyl esters affected

Compound: CCOC(=O)c1cc(OC)c(O)c(OC)c1 [compound 2, Ethyl syringate]
- IC50 ([1]; highest concentration 20 mM, read-out: IC50, mitochondrial complex II (symbol)): > 20000 µM
- inhibition of aflatoxin production [2]: did not inhibit aflatoxin production

Compound: CCCOC(=O)c1cc(OC)c(O)c(OC)c1 [compound 3, propyl syringate]
- IC50 [1, 4]: > 20000 µM
- inhibition of aflatoxin production [2]: did not inhibit aflatoxin production

Compound: Cc1ccccc1C(=O)Nc1cccc(OC(C)C)c1 [mepronil]
- inhibition of aflatoxin production by complex II inhibitors (aflatoxin production): inhibited aflatoxin production with selectivity

Compound: CCOC(=O)c1ccc(O)cc1 [compound 9, ethyl paraben]
- aflatoxin production inhibitory activity (comparison in words) [2]: weak

Compound: COc1[nH]c(=O)c(C(=O)[C@@H](C)C[C@H](C)[C@@H](Cl)CCl)c(O)c1OC [atpenin A5]
- inhibition of aflatoxin production by complex II inhibitors (aflatoxin production): inhibited aflatoxin production with selectivity

Compound: CCCCCOC(=O)c1cc(OC)c(O)c(OC)c1 [compound 5, pentyl syringate]
- IC50 [1, 4]: 2800 µM
- inhibition of aflatoxin production [2]: inhibited aflatoxin production very strongly
